Experimental data as given in patent publication US9249129B2, “Morpholino substituted urea derivatives as mTOR inhibitors” (CELLZOME LIMITED, priority 2010, dated 2016).
Where two headings read alike, the source gives them in different places.

Legend:
Assay type in all cases: binding
mTOR = molecular target: T1, mTOR (Homo sapiens, UniProt P42345); assay: mTOR kinobeads assay (dot blot detection)
T1 construct: endogenous in cells; host or cells: Jurkat cells (ATCC TIB-152, clone E6-1), lysate
Summary of the method: (§1)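 Jurkat cell lysate (5 mg/ml protein) was incubated with test compounds and kinobeads (immobilized phenylthiazole and phenylmorpholin-chromen ligands) for 2 h in the cold with shaking. Bead-bound kinase was SDS-eluted and quantified by antibody dot blot with infrared detection. IC50 values came from dose-response curves.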

[1] = molecular target: T2, DNA-dependent protein kinase (DNA-PK) (Homo sapiens, UniProt P78527); assay: kinobeads assay, DNA-PK (dot blot detection)
T2 construct: endogenous in cells; host or cells: Jurkat cells (ATCC TIB-152, clone E6-1), lysate
Summary of the method: as §1

kinases (kinome) [2] = molecular target: T3, kinases (kinome) (Homo sapiens, UniProt O60885); assay: kinobeads assay with mass spectrometry detection of kinases (kinase selectivity profile); conditions: BRD4 (Atypical), IPI00440727
T3 construct: determined in kinobeads assays with mass spectrometry detection of kinases as described previously; endogenous in cells; host or cells: cell lysate
From the text: (§2) The protein kinase complement of the human genome (the kinome) was described previously (Manning et al., 2002. Science 298(5600):1912-1934). Sequence accession numbers are defined by the International Protein Index (IPI) (Kersey et al., 2004. Proteomics 4(7):1985-1988).

kinases (kinome) [3] = molecular target: T4, kinases (kinome) (Homo sapiens, UniProt P07948); assay: as above; conditions: LYN (TK), IPI00298625
T4 construct: determined in kinobeads assays with mass spectrometry detection of kinases as described previously; endogenous in cells; host or cells: cell lysate
From the text: as §2

kinases (kinome) [4] = molecular target: T5, kinases (kinome) (Homo sapiens, UniProt P29597); assay: as above; conditions: TYK2 (TK), IPI00022353
T5 construct: determined in kinobeads assays with mass spectrometry detection of kinases as described previously; endogenous in cells; host or cells: cell lysate
From the text: as §2

kinases (kinome) [5] = molecular target: T6, kinases (kinome) (Homo sapiens, UniProt P42684); assay: as above; conditions: ARG (TK), IPI00329488
T6 construct: determined in kinobeads assays with mass spectrometry detection of kinases as described previously; endogenous in cells; host or cells: cell lysate
From the text: as §2

kinases (kinome) [6] = molecular target: T7, kinases (kinome) (Homo sapiens, UniProt P49674); assay: as above; conditions: CK1e (CK1), IPI00027729
T7 construct: determined in kinobeads assays with mass spectrometry detection of kinases as described previously; endogenous in cells; host or cells: cell lysate
From the text: as §2

kinases (kinome) [7] = molecular target: T8, kinases (kinome) (Homo sapiens, UniProt Q14289); assay: as above; conditions: PYK2 (TK), IPI00029702
T8 construct: determined in kinobeads assays with mass spectrometry detection of kinases as described previously; endogenous in cells; host or cells: cell lysate
From the text: as §2

kinases (kinome) [8] = molecular target: T9, kinases (kinome) (Homo sapiens, UniProt Q14680); assay: as above; conditions: MELK (CAMK), IPI00006471
T9 construct: determined in kinobeads assays with mass spectrometry detection of kinases as described previously; endogenous in cells; host or cells: cell lysate
From the text: as §2

kinases (kinome) [9] = molecular target: T10, kinases (kinome) (Homo sapiens, UniProt Q15059); assay: as above; conditions: BRD3 (Atypical), IPI00014266
T10 construct: determined in kinobeads assays with mass spectrometry detection of kinases as described previously; endogenous in cells; host or cells: cell lysate
From the text: as §2

kinases (kinome) [10] = molecular target: kinases (kinome) (Homo sapiens, UniProt Q15418); assay: as above; conditions: RSK3 (AGC), IPI00477982
From the text: as §2

kinases (kinome) [11] = molecular target: T11, kinases (kinome) (Homo sapiens, UniProt Q9Y4K4); assay: as above; conditions: KHS1 (STE), IPI00294842
T11 construct: determined in kinobeads assays with mass spectrometry detection of kinases as described previously; endogenous in cells; host or cells: cell lysate
From the text: as §2

[12] = Table 2, Jurkat cell lysate, read-out: Inhibition values (IC50) mTor
[13] = Table 4, read-out: Inhibition values (IC50) mTOR
[14] = Table 2, Jurkat cell lysate, read-out: Inhibition values (IC50) DNAPK
[15] = Table 4, read-out: Inhibition values (IC50) DNAPK

T7 sequence (P49674 whole entry): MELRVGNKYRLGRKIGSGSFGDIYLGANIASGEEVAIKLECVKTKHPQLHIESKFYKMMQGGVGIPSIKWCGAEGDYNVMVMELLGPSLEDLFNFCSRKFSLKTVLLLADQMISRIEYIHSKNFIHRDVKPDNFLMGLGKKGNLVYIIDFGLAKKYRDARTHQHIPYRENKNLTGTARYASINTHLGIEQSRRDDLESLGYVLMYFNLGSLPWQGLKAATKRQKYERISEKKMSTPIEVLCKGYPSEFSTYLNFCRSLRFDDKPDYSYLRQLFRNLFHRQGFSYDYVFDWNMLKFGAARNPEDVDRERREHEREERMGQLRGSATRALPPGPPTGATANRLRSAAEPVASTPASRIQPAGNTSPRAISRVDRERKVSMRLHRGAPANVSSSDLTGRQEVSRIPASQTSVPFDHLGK
T4 sequence (P07948 whole entry): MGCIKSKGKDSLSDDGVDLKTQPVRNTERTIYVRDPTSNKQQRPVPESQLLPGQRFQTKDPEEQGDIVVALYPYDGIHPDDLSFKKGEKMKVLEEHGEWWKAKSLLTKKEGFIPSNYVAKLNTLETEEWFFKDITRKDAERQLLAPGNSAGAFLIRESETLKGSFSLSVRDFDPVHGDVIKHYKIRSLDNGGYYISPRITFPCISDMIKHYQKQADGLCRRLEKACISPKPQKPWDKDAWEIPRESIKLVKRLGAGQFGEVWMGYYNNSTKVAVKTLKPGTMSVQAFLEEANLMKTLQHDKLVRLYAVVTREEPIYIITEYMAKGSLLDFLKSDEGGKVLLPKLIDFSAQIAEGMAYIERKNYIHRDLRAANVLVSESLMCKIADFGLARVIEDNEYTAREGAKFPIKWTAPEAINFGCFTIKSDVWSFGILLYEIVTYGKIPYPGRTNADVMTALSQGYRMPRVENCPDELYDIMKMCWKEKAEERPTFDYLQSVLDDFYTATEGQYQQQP
T11 sequence (Q9Y4K4 whole entry): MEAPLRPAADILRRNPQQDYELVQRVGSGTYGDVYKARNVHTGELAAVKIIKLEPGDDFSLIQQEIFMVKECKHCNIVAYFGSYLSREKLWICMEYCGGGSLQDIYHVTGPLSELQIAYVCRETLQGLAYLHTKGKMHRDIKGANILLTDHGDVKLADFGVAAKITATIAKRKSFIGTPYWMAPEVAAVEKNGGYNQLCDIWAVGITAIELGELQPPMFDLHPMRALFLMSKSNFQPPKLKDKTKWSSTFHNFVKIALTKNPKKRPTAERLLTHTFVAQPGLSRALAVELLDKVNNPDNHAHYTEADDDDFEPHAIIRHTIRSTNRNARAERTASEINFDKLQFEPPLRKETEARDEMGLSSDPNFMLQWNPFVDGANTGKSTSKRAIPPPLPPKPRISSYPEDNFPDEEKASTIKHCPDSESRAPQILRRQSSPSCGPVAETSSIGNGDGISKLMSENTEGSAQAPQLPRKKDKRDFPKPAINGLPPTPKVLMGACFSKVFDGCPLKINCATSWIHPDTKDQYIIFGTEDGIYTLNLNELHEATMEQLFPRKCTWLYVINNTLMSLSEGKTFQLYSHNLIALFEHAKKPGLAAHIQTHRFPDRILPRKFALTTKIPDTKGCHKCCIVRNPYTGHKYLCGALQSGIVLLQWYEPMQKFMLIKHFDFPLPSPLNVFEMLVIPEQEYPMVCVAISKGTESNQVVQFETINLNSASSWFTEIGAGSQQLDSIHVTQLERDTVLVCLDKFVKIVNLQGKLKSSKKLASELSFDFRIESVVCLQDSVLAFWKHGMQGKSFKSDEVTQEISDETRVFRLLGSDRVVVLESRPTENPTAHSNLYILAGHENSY
kinases (kinome) (Homo sapiens, UniProt Q15418), sequence (Q15418 whole entry): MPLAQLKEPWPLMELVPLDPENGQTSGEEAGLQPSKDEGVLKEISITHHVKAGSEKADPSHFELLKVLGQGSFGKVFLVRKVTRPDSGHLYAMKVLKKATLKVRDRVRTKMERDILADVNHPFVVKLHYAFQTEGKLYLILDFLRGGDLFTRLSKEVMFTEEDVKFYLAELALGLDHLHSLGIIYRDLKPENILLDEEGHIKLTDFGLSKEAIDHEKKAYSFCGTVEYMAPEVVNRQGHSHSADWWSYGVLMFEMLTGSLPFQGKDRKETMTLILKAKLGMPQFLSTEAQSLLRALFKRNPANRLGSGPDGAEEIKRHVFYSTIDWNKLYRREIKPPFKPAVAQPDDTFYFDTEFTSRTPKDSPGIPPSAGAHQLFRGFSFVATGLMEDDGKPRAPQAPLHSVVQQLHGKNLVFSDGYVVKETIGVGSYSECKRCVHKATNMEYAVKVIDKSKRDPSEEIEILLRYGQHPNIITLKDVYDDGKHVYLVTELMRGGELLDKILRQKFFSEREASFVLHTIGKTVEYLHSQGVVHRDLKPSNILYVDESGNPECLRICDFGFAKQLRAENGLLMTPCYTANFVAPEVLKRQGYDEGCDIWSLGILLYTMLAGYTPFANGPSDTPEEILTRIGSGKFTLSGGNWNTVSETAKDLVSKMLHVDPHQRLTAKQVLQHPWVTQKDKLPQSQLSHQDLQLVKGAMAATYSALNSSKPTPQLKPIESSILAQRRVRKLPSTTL
T10 sequence (Q15059 whole entry): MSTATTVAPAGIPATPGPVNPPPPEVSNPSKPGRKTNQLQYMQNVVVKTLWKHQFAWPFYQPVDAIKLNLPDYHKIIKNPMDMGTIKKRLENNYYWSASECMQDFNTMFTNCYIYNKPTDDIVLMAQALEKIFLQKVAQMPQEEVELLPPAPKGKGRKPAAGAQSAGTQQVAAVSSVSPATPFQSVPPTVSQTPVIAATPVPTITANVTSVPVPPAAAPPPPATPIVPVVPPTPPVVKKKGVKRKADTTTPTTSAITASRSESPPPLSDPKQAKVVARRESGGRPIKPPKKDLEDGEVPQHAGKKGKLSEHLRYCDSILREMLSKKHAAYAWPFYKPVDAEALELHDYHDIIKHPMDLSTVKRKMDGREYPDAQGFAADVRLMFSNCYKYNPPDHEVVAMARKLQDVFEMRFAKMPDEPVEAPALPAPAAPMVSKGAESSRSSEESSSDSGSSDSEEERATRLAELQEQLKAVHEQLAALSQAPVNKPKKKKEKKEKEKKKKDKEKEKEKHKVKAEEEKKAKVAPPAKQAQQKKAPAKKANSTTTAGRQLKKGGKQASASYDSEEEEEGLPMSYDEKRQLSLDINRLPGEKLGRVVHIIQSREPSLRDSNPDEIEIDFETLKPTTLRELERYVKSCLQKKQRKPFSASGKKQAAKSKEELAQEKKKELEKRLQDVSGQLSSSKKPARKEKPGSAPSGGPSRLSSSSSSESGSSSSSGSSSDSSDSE
T9 sequence (Q14680 whole entry): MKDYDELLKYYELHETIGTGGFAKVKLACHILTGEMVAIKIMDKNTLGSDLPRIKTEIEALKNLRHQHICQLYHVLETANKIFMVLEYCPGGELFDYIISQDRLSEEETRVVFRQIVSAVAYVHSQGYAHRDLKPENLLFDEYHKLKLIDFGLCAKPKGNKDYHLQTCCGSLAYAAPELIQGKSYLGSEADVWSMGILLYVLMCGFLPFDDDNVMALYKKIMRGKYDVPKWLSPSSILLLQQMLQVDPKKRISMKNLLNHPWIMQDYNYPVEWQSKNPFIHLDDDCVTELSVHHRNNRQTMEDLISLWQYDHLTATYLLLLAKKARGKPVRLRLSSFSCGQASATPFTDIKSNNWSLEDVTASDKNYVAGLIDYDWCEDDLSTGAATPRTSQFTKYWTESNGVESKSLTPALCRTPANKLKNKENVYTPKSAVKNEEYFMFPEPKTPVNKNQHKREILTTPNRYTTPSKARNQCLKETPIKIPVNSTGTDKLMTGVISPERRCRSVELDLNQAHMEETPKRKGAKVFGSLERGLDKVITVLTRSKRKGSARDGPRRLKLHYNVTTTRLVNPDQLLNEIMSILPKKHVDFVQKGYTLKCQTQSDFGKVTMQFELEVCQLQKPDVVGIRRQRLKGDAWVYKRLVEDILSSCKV
T5 sequence (P29597 whole entry): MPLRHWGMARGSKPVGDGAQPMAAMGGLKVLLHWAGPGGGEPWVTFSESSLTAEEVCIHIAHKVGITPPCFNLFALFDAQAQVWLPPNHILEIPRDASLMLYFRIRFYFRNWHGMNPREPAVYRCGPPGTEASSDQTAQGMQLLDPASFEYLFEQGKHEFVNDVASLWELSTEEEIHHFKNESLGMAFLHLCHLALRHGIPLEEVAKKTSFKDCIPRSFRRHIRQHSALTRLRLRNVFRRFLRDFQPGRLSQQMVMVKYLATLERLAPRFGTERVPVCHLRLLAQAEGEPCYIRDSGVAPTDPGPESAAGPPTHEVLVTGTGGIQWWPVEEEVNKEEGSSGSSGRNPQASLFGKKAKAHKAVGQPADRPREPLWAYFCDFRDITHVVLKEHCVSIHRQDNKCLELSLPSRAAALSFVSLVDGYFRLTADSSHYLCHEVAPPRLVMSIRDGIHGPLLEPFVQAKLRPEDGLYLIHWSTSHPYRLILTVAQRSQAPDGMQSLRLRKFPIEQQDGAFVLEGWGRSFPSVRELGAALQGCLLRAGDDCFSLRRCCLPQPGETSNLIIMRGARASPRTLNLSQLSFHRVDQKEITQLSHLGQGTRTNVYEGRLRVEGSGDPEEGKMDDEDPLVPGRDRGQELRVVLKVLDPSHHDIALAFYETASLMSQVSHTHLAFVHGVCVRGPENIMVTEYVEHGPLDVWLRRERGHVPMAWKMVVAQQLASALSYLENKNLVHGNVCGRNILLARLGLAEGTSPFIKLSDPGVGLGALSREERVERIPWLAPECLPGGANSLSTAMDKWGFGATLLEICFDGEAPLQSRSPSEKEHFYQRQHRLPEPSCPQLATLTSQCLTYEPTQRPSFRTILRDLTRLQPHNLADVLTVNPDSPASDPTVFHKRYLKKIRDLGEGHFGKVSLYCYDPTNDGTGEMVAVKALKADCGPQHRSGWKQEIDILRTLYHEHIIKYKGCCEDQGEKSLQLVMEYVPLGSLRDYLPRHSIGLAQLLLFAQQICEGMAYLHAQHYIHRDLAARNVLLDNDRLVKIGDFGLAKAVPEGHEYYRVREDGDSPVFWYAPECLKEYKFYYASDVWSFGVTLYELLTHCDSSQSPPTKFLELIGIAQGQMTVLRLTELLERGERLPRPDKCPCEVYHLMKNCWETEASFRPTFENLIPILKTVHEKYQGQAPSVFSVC

Compound	IC50 (mTOR; [12]) [µM]	IC50 (mTOR; [13]) [µM]	IC50 [1, 14] [µM]	IC50 [1, 15] [µM]	IC50 (kinases (kinome) [2]) [µM]	IC50 (kinases (kinome) [3]) [µM]	IC50 (kinases (kinome) [4]) [µM]	IC50 (kinases (kinome) [5]) [µM]	IC50 (kinases (kinome) [6]) [µM]	IC50 (kinases (kinome) [7]) [µM]	IC50 (kinases (kinome) [8]) [µM]	IC50 (kinases (kinome) [9]) [µM]	IC50 (kinases (kinome) [10]) [µM]	IC50 (kinases (kinome) [11]) [µM]
C[C@H]1COCCN1c1nc(-c2ccc(NC(=O)NC3CC3)cc2)cc(-c2ccccc2S(C)(=O)=O)n1 [Example 4, (S)-1-cyclopropyl-3-(4-(2-(3-methylmorpholino)-6-(2-(methylsulfonyl)phenyl)pyrimidin-4-yl)phenyl)urea]	0.1 to 1	0.1 to 1	≥ 10	≥ 10	> 10	> 10	> 10	> 10	> 10	> 10	> 10	> 10	> 10	> 10
C[C@H]1COCCN1c1nc(-c2ccc(NC(=O)NCCO)cc2)cc(-c2cc(F)ccc2S(C)(=O)=O)n1 [Example 41, (S)-1-(4-(6-(5-fluoro-2-(methylsulfonyl)phenyl)-2-(3-methylmorpholino)pyrimidin-4-yl)phenyl)-3-(2-hydroxyethyl)urea]	< 0.1	< 0.1	≥ 10	≥ 10	–	–	–	–	–	–	–	–	–	–
C[C@H]1COCCN1c1cc(-c2ccccc2S(C)(=O)=O)nc(-c2ccc(NC(=O)NC3CC3)cc2)n1 [Example 6, (S)-1-cyclopropyl-3-(4-(4-(3-methylmorpholino)-6-(2-(methylsulfonyl)phenyl)pyrimidin-2-yl)phenyl)urea]	0.1 to 1	0.1 to 1	≥ 10	≥ 10	> 10	> 10	> 10	> 10	> 10	> 10	> 10	> 10	> 10	> 10
C[C@H]1COCCN1c1nc(-c2ccc(NC(=O)NCCF)cc2)cc(-c2cc(F)ccc2S(C)(=O)=O)n1 [Example 44, (S)-1-(4-(6-(5-fluoro-2-(methylsulfonyl)phenyl)-2-(3-methylmorpholino)pyrimidin-4-yl)phenyl)-3-(2-fluoroethyl)urea]	0.1 to 1	0.1 to 1	≥ 10	≥ 10	–	–	–	–	–	–	–	–	–	–
C[C@H]1COCCN1c1nc(-c2ccc(NC(=O)NC3CC3)cc2)cc(-c2cccnc2S(C)(=O)=O)n1 [Example 46, (S)-1-cyclopropyl-3-(4-(2-(3-methylmorpholino)-6-(2-(methylsulfonyl)pyridin-3-yl)pyrimidin-4-yl)phenyl)urea]	0.1 to 1	0.1 to 1	≥ 10	≥ 10	> 10	> 10	> 10	> 10	> 10	> 10	> 10	> 10	> 10	> 10
C[C@H]1COCCN1c1nc(-c2ccc(NC(=O)NCC(F)F)cc2)cc(-c2cc(F)ccc2S(C)(=O)=O)n1 [Example 47, (S)-1-(2,2-difluoroethyl)-3-(4-(6-(5-fluoro-2-(methylsulfonyl)phenyl)-2-(3-methylmorpholino)pyrimidin-4-yl)phenyl)urea]	0.1 to 1	0.1 to 1	≥ 10	≥ 10	–	–	–	–	–	–	–	–	–	–

The remaining lines, values ahead:

IC50 (mTOR; [12]) [µM]	IC50 (mTOR; [13]) [µM]	IC50 [1, 14] [µM]	IC50 [1, 15] [µM]	IC50 (kinases (kinome) [2]) [µM]	IC50 (kinases (kinome) [3]) [µM]	IC50 (kinases (kinome) [4]) [µM]	IC50 (kinases (kinome) [5]) [µM]	IC50 (kinases (kinome) [6]) [µM]	IC50 (kinases (kinome) [7]) [µM]	IC50 (kinases (kinome) [8]) [µM]	IC50 (kinases (kinome) [9]) [µM]	IC50 (kinases (kinome) [10]) [µM]	IC50 (kinases (kinome) [11]) [µM]	Compound
0.1 to 1	0.1 to 1	≥ 10	≥ 10	–	–	–	–	–	–	–	–	–	–	CS(=O)(=O)c1ccc(F)cc1-c1cc(-c2ccc(NC(=O)NCCO)cc2)nc(N2CCOCC2)n1 [Example 62, 1-(4-(6-(5-fluoro-2-(methylsulfonyl)phenyl)-2-morpholinopyrimidin-4-yl)phenyl)-3-(2-hydroxyethyl)urea]
–	0.1 to 1	–	≥ 10	> 10	> 10	> 10	> 10	> 10	> 10	> 10	> 10	> 10	> 10	C[C@H]1COCCN1c1nc(-c2ccc(NC(=O)N[C@H]3CCC[C@@H]3O)cc2)cc(-c2cc(F)ccc2S(C)(=O)=O)n1 [Example 76, 1-(4-(6-(5-fluoro-2-(methylsulfonyl)phenyl)-2-((S)-3-methylmorpholino)pyrimidin-4-yl)phenyl)-3-((1S,2S)-2-hydroxycyclopentyl)urea]
